# Laboratory results published in paper PMC8621101, “Inhibition of XPO-1 Mediated Nuclear Export through the Michael-Acceptor Character of Chalcones” (Pharmaceuticals, 2021).
# Key:
# Hap-1 cells = assay: Cell proliferation assay (IncuCyte confluence), Hap-1; type: cell-based; details: Homo sapiens, HAP1; Hap-1 chronic myeloid leukemia; 72 h; mean of two independent experiments ± SEM; read-out: IC50 antiproliferative activity Hap-1
# Protocol: (§1) Cancer cell lines HCT-116, NCI-H460, HL-60, K-562 and Z-138 were acquired from the American Type Culture Collection (ATCC, Manassas, VA, USA). The DND-41 cell line was purchased from the Deutsche Sammlung von Mikroorganismen und Zellkulturen (DSMZ Leibniz-Institut, Brunswick, Germany), and the HAP-1 cell line was ordered from Horizon Discovery (Horizon Discovery Group, Water Beach, UK). All cell lines were cultured as recommended by the suppliers. Culture media were purchased from Gibco Life Technologies and supplemented with 10% fetal bovine serum (HyClone, GE Healthcare Life Sciences, Chicago, Illinois, USA).
# (§2) Adherent cell lines HCT-116, NCI-H460 and Hap-1 cells were seeded at a density between 500 and 1500 cells per well in 384-well tissue culture plates (Greiner). After overnight incubation, cells were treated with different concentrations of the test compounds. Suspension cell lines HL-60, K-562, Z-138 and DND-41 were seeded at densities ranging from 2500 to 5500 cells per well in 384-well culture plates containing the test compounds at the same concentration points.
# HL-60 cells = assay: Cell proliferation assay (IncuCyte confluence), HL-60; type: cell-based; details: Homo sapiens; HL-60 acute myeloid leukemia; 72 h; mean of two independent experiments ± SEM; read-out: IC50 antiproliferative activity HL-60
# Protocol: as §1, §2
# HCT-116 cells = assay: Cell proliferation assay (IncuCyte confluence), HCT-116; type: cell-based; details: Homo sapiens; HCT-116 colorectal carcinoma; 72 h; mean of two independent experiments ± SEM; read-out: IC50 antiproliferative activity HCT-116
# Protocol: as §1, §2
# Z-138 cells = assay: Cell proliferation assay (IncuCyte confluence), Z-138; type: cell-based; details: Homo sapiens; Z-138 non-Hodgkin lymphoma; 72 h; mean of two independent experiments ± SEM; read-out: IC50 antiproliferative activity Z-138
# Protocol: as §1, §2
# NCI-H460 cells = assay: Cell proliferation assay (IncuCyte confluence), NCI-H460; type: cell-based; details: Homo sapiens; NCI-H460 lung carcinoma; 72 h; mean of two independent experiments ± SEM; read-out: IC50 antiproliferative activity NCI-H460
# Protocol: as §1, §2
# DND-41 cells = assay: Cell proliferation assay (IncuCyte confluence), DND-41; type: cell-based; details: DND41; DND-41 acute lymphoblastic leukemia; 72 h; mean of two independent experiments ± SEM; read-out: IC50 antiproliferative activity DND-41
# Protocol: as §1, §2
# XPO1 = target: T1, XPO1 (Homo sapiens, UniProt O14980); assay: XPO1 phenotypic reporter assay in HeLa NLSSV40-AcGFP-NESPKI cells; type: cell-based; details: HeLa GFP reporter cell line; for IC50: 2 h treatment, mean ± SEM of two independent experiments, read-out: XPO1 inhibition IC50
# T1 construct: the compounds were assayed in a reporter cell line based on the subcellular localization of a XPO1-dependent GFP reporter cargo protein; endogenous in cells; host or cells: HeLa cells stably transfected with the NLSSV40-AcGFP-NESPKI reporter (only the reporter cargo is transfected, not XPO1)
# Protocol: Stably transfected HeLa NLSSV40-AcGFP-NESPKI were cultured as described in Vercruysse et al.
# To study the XPO1-mediated nuclear export, stably transfected HeLa NLSSV40-AcGFP-NESPKI reporter cells were seeded at 8000 cells per well in 96-well all clear tissue culture plates (TPP). After overnight incubation, cells were treated with different doses of compound or solvent (DMSO) for 2 h and then fixed and counterstained with DAPI. Fluorescence was read on an ArrayScan XTI High Content Reader (Thermo Fisher Scientific, Waltham, MA, USA). Nuclear and cytoplasmic compartments were segmented and their average pixel intensities in the green channel were quantitated employing the HCS Studio software. Genedata Screener software was used for dose-response curve fitting, and calculation of EC50 values was based on the percentage of cells having a predominant nuclear localisation (ratio of nuclear to cytoplasmic signal equal or above 1.4) of the reporter construct. Compounds were tested in two independent experiments and represented as mean ± SEM.
# K-562 cells = assay: Cell proliferation assay (IncuCyte confluence), K-562; type: cell-based; details: Homo sapiens, K562; K-562 chronic myeloid leukemia; 72 h; mean of two independent experiments ± SEM; read-out: IC50 antiproliferative activity K-562
# Protocol: as §1, §2
# [1] = tested on: panel of cancer cell lines; assay: Antiproliferative activity, panel of cancer cell lines; type: cell-based; details: panel of cancer cell lines
# Protocol: as §2
# [2] = GSH reactivity assay (HPLC, DTNB quench); type: physicochemical; details: 500 µM compound, 5 mM GSH, 37 °C; for Reaction with GSH (hetero-Michael addition), qualitative: PBS pH 7.4 with EDTA:DMSO 1:1
# Protocol: In order to determine if these chalcones could react with thiol groups through a hetero-Michael addition reaction, a few selected compounds (9, 10, 13 and 18) were incubated with glutathione (GSH). After different incubation times, the reactions were quenched by adding 5,5′-dithiobis(2-nitrobenzoic acid) (DTNB, Ellman´s reagent) (1:1 ratio with respect to the initial concentration of GSH). The course of the reaction was followed by HPLC, adapting reported procedures. […] Thus, although this assay is only qualitative, the tendency observed among these chalcones nicely fits the reactivity described for α-X-2´3,4,4´-tetramethylchalcones.
# A 500 µM sample of the tested compound was incubated with 5 mM reduced L-glutathione for 24 h at 37 °C with a final volume of 200 μL. As a solvent system, 20 mM PBS buffer pH 7.4 with 2 mM EDTA:DMSO (1:1) was used. To perform the assay, stock solutions of 20 mM of the chalcones (9, 10, 13 and 18) and 15 mM of reduced L-glutathione were freshly prepared for every experiment and then diluted properly to give the final electrophile:nucleophile ratio (1:10). A 5 mM solution of 5,5′-dithiobis(2-nitrobenzoic acid) (DTNB) was prepared in the same solvent system to quench the reaction. After different time points (10 min, 1 h, 4 h and 24 h), an aliquot of 20 μL of the incubation mixture was quenched by adding 20 μL of the DTNB stock solution, mixed thoroughly, and then analyzed by HPLC. HPLC analysis was performed in Agilent 1120 compact LC, column ACE 5 C18-300 (15 cm × 4.6 mm); UV detection was performed at λ = 254 nm. Solvents used were acetonitrile for bottle A and H2O (containing 0.05% TFA) for bottle B, and the flow rate was 1mL/min. The gradients used were: (A) incubations with chalcone 9: from 10% to 80% of solvent A in 10 min; (B) incubations with chalcones 10 and 18: from 10% to 100% of solvent A in 10 min. The new peaks were analysed by LC-MS. As controls, a 500 μM solution of the α,β-unsaturated compound was also analysed, and a 5 mM reduced L-glutathione solution was quenched by adding DNTB at the same time points. In general, after 6 h of incubation, no GSH was detected.
# T1 sequence (O14980 whole entry): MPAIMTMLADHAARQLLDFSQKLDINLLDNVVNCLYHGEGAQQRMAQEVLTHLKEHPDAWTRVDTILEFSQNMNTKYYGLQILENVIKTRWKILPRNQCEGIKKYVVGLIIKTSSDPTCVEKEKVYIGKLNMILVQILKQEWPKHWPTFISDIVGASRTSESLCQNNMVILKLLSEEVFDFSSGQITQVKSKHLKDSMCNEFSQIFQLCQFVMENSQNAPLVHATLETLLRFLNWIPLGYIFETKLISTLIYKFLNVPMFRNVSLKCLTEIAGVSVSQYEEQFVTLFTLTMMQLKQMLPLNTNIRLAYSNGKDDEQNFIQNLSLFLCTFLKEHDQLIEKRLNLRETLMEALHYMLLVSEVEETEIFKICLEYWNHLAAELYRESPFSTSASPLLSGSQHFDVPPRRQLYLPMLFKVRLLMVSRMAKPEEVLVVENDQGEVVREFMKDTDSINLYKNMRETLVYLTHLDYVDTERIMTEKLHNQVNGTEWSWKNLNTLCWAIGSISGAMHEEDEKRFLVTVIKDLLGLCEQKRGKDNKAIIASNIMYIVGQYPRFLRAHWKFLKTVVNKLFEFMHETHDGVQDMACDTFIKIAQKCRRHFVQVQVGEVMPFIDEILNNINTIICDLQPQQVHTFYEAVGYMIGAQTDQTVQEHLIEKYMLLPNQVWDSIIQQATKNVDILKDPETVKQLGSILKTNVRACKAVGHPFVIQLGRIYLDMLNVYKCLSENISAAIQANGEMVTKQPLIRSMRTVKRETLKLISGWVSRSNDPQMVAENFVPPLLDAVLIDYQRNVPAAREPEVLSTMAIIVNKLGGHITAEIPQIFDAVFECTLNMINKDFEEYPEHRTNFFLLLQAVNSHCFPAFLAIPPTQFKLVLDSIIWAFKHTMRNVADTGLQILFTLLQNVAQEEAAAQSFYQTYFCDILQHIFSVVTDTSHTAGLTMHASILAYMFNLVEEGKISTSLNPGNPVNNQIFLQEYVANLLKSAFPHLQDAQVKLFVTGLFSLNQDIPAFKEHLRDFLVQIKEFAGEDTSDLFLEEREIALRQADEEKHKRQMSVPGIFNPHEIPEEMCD
SMILES,IC50 (Hap-1 cells) [µM],IC50 (HL-60 cells) [µM],IC50 (HCT-116 cells) [µM],IC50 (Z-138 cells) [µM],IC50 (NCI-H460 cells) [µM],IC50 (DND-41 cells) [µM],"XPO1 inhibition, in words (XPO1)",IC50 (XPO1) [µM],IC50 (K-562 cells) [µM],"Antiproliferative activity, in words [1]","Reaction with GSH (hetero-Michael addition), qualitative [2]",melting point [°C],"Reversibility of GSH adducts (retro-Michael), qualitative ([2]; longer incubation)"
"COCCOc1cc(OC)cc(C(=O)/C=C/c2cncnc2)c1 [Compound 33, (E)-1-(3′-Methoxy-5′-(2-methoxyethoxy)phenyl)-3-(pyrimidin-5′’-yl)prop-2-en-1-one]",4.3 ± 2.5,10 ± 0.9,34.2 ± 6.5,1.5 ± 0.2,16.9 ± 4.5,3.7 ± 1.6,active,12.3 ± 1.28,37.5 ± 0.9,,,,
"NC(=O)C(=Cc1cncnc1)C(=O)c1ccc2ccccc2c1 [Compound 5, reference compound]",,,,,,,,9.18 ± 3.28,,,,,
"C/C(=C\c1cncnc1)C(=O)c1ccc2ccccc2c1 [Compound 18, (E)-2-Methyl-1-(naphthalen-2-yl)-3-(pyrimidin-5-yl)prop-2-en-1-one]",> 100,≥ 40.9,> 100,> 100,> 100,39.1 ± 5.3,inactive against XPO1,> 100,48.5 ± 2.4,almost inactive,remained almost unaltered even after 4 h of incubation,,
"O=C(/C=C/c1ccncc1)c1ccc2ccccc2c1 [Compound 26, (E)-1-(Naphthalen-2-yl)-3-(pyridin-4-yl)prop-2-en-1-one]",2.3 ± 0.3,0.9 ± 0.2,1.9 ± 0.4,1.1 ± 0.4,7.7 ± 1.1,1.9 ± 0.4,,10.7 ± 3.24,4 ± 0.2,low µM range,,135 to 137,
"COC(=O)/C(=C\c1cncnc1)C(=O)c1cc(OC)cc(OC)c1 [Compound 30, (E)-2-Methoxycarbonyl-1-(3′,5′-dimethoxybenzoyl)-3-(pyrimidin-5′-yl)prop-2-en-1-one]",≥ 32,23.4 ± 1.9,≥ 22.2,47.6 ± 1.1,17.3 ± 4.6,43.2 ± 6.4,almost inactive against XPO1,87.3 ± 4.91,42.9 ± 0.1,considerably less active than the α-H chalcone 10,,81 to 82,
"COC(=O)/C(=C/c1cncnc1)C(=O)c1ccc2ccccc2c1 [Compound 13, (E)-2-Methoxycarbonyl-1-(naphthalene-2-yl)-3-(pyrimidin-5-yl)prop-2-en-1-one]",≥ 54.9,> 100,≥ 15.5,> 100,≥ 47.1,≥ 30.6,inactive against XPO1,> 100,> 100,almost inactive,provided the Michael adducts with GSH after a short reaction time,161 to 163,adducts reverted to the parent chalcone
"COc1cc(OCC=C(C)C)cc(C(=O)/C=C/c2cncnc2)c1 [Compound 34, (E)-1-(3′-Methoxy-5′-((3-methylbut-2-en-1-yl)oxy)phenyl)-3-(pyrimidin-5′’-yl)prop-2-en-1-one]",10 ± 2,40.2 ± 10.1,52.9 ± 3.6,4.6 ± 2.7,34.5 ± 5.2,10.1,active,1.59 ± 0.36,4.1 ± 1.9,,,,
"NC(=O)/C(=C/c1cncnc1)C(=O)c1ccc2ccccc2c1 [Compound 15, (E)-2-Carbamoyl-1-(naphthalene-2-yl)-3-(pyrimidin-5-yl)prop-2-en-1-one]",2.1 ± 0.7,5.5 ± 3.6,5.3 ± 3.1,5.1 ± 2.7,2.6 ± 0.7,8.9 ± 0.9,,~10,2.1 ± 0.1,slightly less active than the parent chalcone 9,,,
"O=C(/C=C/c1ccccn1)c1ccc2ccccc2c1 [Compound 25, (E)-1-(Naphthalen-2-yl)-3-(pyridin-2-yl)prop-2-en-1-one]",3.4 ± 0.5,1.8 ± 0.05,3.9 ± 1.5,2.3 ± 0.5,51.6 ± 11.7,2.6 ± 0.4,,7.28 ± 1.34,4.8 ± 2.8,low µM range,,89 to 90,
"O=C(/C=C/c1cccnc1)c1ccc2ccccc2c1 [Compound 24, (E)-1-(Naphthalen-2-yl)-3-(pyridin-3-yl)prop-2-en-1-one]",1.6 ± 0.1,3.5 ± 2.1,3.1 ± 0.9,1.6 ± 0.1,4.3 ± 2.2,1.8 ± 0.5,,1.27 ± 0.29,2.2 ± 0.03,low µM range,,123 to 125,
